Measurements as given in ChEMBL document CHEMBL1143886, “In vitro spermicidal activity of peptides from amphibian skin: dermaseptin S4 and derivatives” (Bioorg Med Chem, 2008).
Calls of active or inactive are those of the source. The rule behind the calls is not given here.

What was measured:
Sperm [1] = assay: Inhibition of human sperm motility assessed as decrease in straight line velocity by CASA; assay type: functional
Sperm [2] = assay: Inhibition of human sperm motility assessed as decrease in curvilenear velocity by CASA; assay type: functional, cell-based
Sperm [3] = assay: Inhibition of human sperm motility at 5 ug/ml after 15 mins by CASA; assay type: functional
Sperm [4] = assay: Inhibition of human sperm motility assessed as decrease in average path velocity by CASA; assay type: functional
[5] = Inhibition of human sperm motility by Sander-Cramer modified assay; assay type: functional
HeLa = assay: Cytotoxicity against human HeLa cells at above 16 ug/ml after 24 hrs by MTT assay; assay type: cell-based
[6] = Inhibition of human sperm motility at 20 ug/ml after 5 mins by CASA; assay type: functional; set-up: scale not given: the % may be the effect or the level left
Sperm [7] = assay: Inhibition of human sperm motility upto 15 mins by CASA; assay type: functional, cell-based

Row | Compound | Activity (Sperm [1]) | Activity (Sperm [2]) | Activity (Sperm [4]) | EC100 [5] [µg/mL] | Activity (HeLa) | other results
1 | CC(C)C[C@H](NC[C@@H](NC(=O)[C@H](C)NC(=O)[C@H](CC(N)=O)NC(=O)[C@H](CC(C)C)NC(=O)[C@H](C)NC(=O)[C@H](C)NC(=O)[C@H](CCCCN)NC(=O)[C@H](C)NC(=O)[C@H](C)NC(=O)[C@H](C)NC(=O)[C@H](CCCCN)NC(=O)[C@H](CC(C)C)NC(=O)[C@@H](NC(=O)[C@H](CCCCN)NC(=O)[C@H](CCCCN)NC(=O)[C@H](CC(C)C)NC(=O)[C@H](CC(C)C)NC(=O)[C@@H](NC(=O)[C@H](CCCCN)NC(=O)[C@H](Cc1c[nH]c2ccccc12)NC(=O)[C@H](CC(C)C)NC(=O)[C@H](C)N)[C@@H](C)O)C(C)C)C(C)C)C(=O)N[C@H](C(=O)NCC(=O)N[C@@H](C)C(=O)N[C@@H](CC(N)=O)C(=O)N[C@@H](C)C(=O)O)C(C)C | Dose-dependent effect | Dose-dependent effect | Dose-dependent effect | – | – | Activity (Sperm [3]): Active
2 | CSCC[C@H](NC(=O)[C@H](Cc1c[nH]c2ccccc12)NC(=O)[C@H](CC(C)C)NC(=O)[C@H](C)N)C(=O)N[C@H](C(=O)N[C@@H](CC(C)C)C(=O)N[C@@H](CC(C)C)C(=O)N[C@@H](CCCCN)C(=O)N[C@@H](CCCCN)C(=O)N[C@H](C(=O)N[C@@H](CC(C)C)C(=O)N[C@@H](CCCCN)C(=O)N[C@@H](C)C(=O)N[C@@H](C)C(=O)N[C@@H](C)C(=O)N[C@@H](CCCCN)C(=O)N[C@@H](C)C(=O)N[C@@H](C)C(=O)N[C@@H](CC(C)C)C(=O)N[C@@H](CC(N)=O)C(=O)N[C@@H](C)C(=O)N[C@H](CN[C@@H](CC(C)C)C(=O)N[C@H](C(=O)NCC(=O)N[C@@H](C)C(=O)N[C@@H](CC(N)=O)C(=O)N[C@@H](C)C(N)=O)C(C)C)C(C)C)C(C)C)[C@@H](C)O | Dose-dependent effect | Dose-dependent effect | Dose-dependent effect | – | – | –
3 | H-ALWKTLLKKVLKAAAK-NH2 | Dose-dependent effect | Dose-dependent effect | Dose-dependent effect | 25 | Toxic | –
4 | H-ALWKTLLKKVLKAAAKAALNAVLVGANA-OH [listing 1 of 2 here] | – | – | – | – | Toxic | –
5 | H-ALWKTLLKKVLKAAAKAALNAVLVGANA-OH [listing 2 of 2 here] | – | – | – | – | – | Activity [6]: 100%
6 | H-ALWMTLLKKVLKAAAKAALNAVLVGANA-NH2 [listing 1 of 2 here] | – | – | – | – | Toxic | –
7 | H-ALWMTLLKKVLKAAAKAALNAVLVGANA-NH2 [listing 2 of 2 here] | – | – | – | 25 | – | –
8 | H-ALWMTLLKKVLKAAAKAALNAVLVGANA-OH | – | – | – | 25 | – | –
9 | H-LLKKVLKAAAKAALNAVLVGANA-OH | Dose-dependent effect | Dose-dependent effect | Dose-dependent effect | 25 | – | Activity (Sperm [7]): inactive
